From US11279733B2, “Peptide antibiotics” (priority 2017, dated 2022)
Values after ≈ are worked out from the molar mass of the structure shown. Read-outs that look alike come from different tables or passages of the source. Positions of bridges follow the written chain, without caps; N, C: chain ends. Non-standard residues stand in square brackets, D forms with d. Residues, ends and D or L forms follow the SMILES beside them. *: point of attachment. Decanoyl(3R-OH) = CCCCCCC[C@@H](O)CC(=O)*; Octanoyl(3-OH) = CCCCCC(O)CC(=O)*; dDab = NCC[C@@H](N)C(=O)O; Dab = NCC[C@H](N)C(=O)O

Columns and labels:
[1] = tested on: P. aeruginosa GN_105, PmxR; details: GN 105, PmxR
Method in brief: (§1)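 Mid-log cultures grown in Mueller Hinton broth at 37° C were tested by 2-fold broth microdilution at 5×10^5 CFU/mL final. Compounds were dissolved in water and tested over a final range of 32 to 0.015 μg/mL.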

[2] = tested on: K. pneumoniae ATCC 700603, MDR; details: ATCC 700603
Method in brief: as §1

[3] = tested on: P. aeruginosa GN_043, PmxR; details: for MIC, P. aeruginosa FADDI-PA070, PmxR: Table 5
Method in brief: as §1

P. aeruginosa ATCC 27853 = details: ATCC 27853
Method in brief: as §1

[4] = tested on: K. pneumoniae ATCC BAA-2146, NDM-1 pos; details: ATCC BAA-2146
Method in brief: as §1

E. coli ATCC 25922 = details: ATCC 25922
Method in brief: as §1

[5] = tested on: K. pneumoniae GN_102 PmxR; details: GN 102 PmxR
Method in brief: as §1

[6] = tested on: K. pneumoniae GN_106, PmxR; details: GN 106, PmxR
Method in brief: as §1

A. baumannii GN_093 PmxR = details: GN 093 PmxR
Method in brief: as §1

A. baumannii ATCC 19606 = details: ATCC 19606
Method in brief: as §1

[7] = tested on: S. aureus ATCC 25923, MSSA; details: ATCC 25923
Method in brief: as §1

K. pneumoniae ATCC 13883 = details: ATCC 13883
Method in brief: as §1

in vitro = details: human
Description: Cytotoxicity of the synthesised peptides was evaluated by comparison with commercially available colistin (polymyxin E), polymyxin B (Sigma chemical Co., St. Louis, Mo., U.S.A.) and synthetic octapeptin C4 by conducting lactate dehydrogenase (LDH) assay. CC50 values calculated based on curve fitting of dose dependent inhibition of cell growth represented the cytotoxicity of the peptide. Human kidney 2 (HK2) cells were seeded as 2000 cells per well in a 384 well cell culture plate in a final volume of 20 μL in DMEM/F12 medium (Invitrogen #11330057), in which 10% of FBS was added. Cells were incubated for 24 hours at 37° C., 5% CO2 to allow cells to attach to the plates. Similar conditions were employed for HEK293 and HepG2 cytotoxicity assays.
Colistin and polymyxin B were tested from a range of 2 mM to 0.9 μM. 120 μL of the 1 mM stock solutions in water of each synthesised peptide were freeze-dried and processed for LDH assay. After freeze-dry procedure, the compounds were reconstituted into 600 μM solutions using culture media. All tested compounds were diluted from 600 μM to 0.27 μM in 3-fold dilutions. Then 20 μL of each dilution was added into 20 uL of culture medium in quadruplicate to reach the final concentrations. The cells were incubated with the compounds for 24 h at 37° C., 5% CO2. After the incubation, 5 μL of culture medium was added to 50 μL of LDH assay buffer and incubated for 1 h at room temperature. The absorbance was read at 450 nm using Polarstar. The data was then analysed by Prism software. […] Nephrotoxicity Assessment in Human Proximal Tubule Cells.

Compound	MIC P. aeruginosa GN_105, PmxR [1] [µg/mL]	MIC K. pneumoniae ATCC 700603, MDR [2] [µg/mL]	MIC P. aeruginosa ATCC 27853 (P. aeruginosa ATCC 27853) [µg/mL]	MIC K. pneumoniae ATCC BAA-2146, NDM-1 pos [4] [µg/mL]	MIC E. coli ATCC 25922 (E. coli ATCC 25922) [µg/mL]	MIC K. pneumoniae GN_102 PmxR [5] [µg/mL]	MIC K. pneumoniae GN_106, PmxR [6] [µg/mL]	MIC A. baumannii GN_093 PmxR (A. baumannii GN_093 PmxR) [µg/mL]	MIC A. baumannii ATCC 19606 (A. baumannii ATCC 19606) [µg/mL]	MIC S. aureus ATCC 25923, MSSA [7] [µg/mL]	MIC K. pneumoniae ATCC 13883 (K. pneumoniae ATCC 13883) [µg/mL]	CC50 at 24 h (in vitro) [µM]	MIC, P. aeruginosa PA9704, PmxR [1] [µg/mL]	MIC, K. pneumoniae ATCC 700603, MDR [2] [µg/mL]	MIC, P. aeruginosa FADDI-PA070, PmxR ([3]; polymyxin-resistant) [µg/mL]	MIC, P. aeruginosa ATCC 27853 (P. aeruginosa ATCC 27853) [µg/mL]	MIC, K. pneumoniae ATCC BAA-2146, NDM-1 pos [4] [µg/mL]	MIC, E. coli ATCC 25922 (E. coli ATCC 25922) [µg/mL]	MIC, K. pneumoniae Cl Koprana 10065 0661:1, PmxR [5] [µg/mL]	MIC, K. pneumoniae Cl 138-16347-20362, PmxR [6] [µg/mL]	further results
CCCCCCC[C@@H](O)CC(=O)N[C@H](CCN)C(=O)N[C@H]1CCNC(=O)[C@H](C)NC(=O)[C@H](CCN)NC(=O)[C@H](CCN)NC(=O)[C@H](CC(C)C)NC(=O)[C@@H](Cc2ccccc2)NC(=O)[C@H](CCN)NC1=O [compound 4943, 3(R)OH-nC9CO-D-Dab-cyc[L-Dab-L-Dab-D-Phe-L-Leu-L-Dab-L-Dab-L-Ala]] ({Decanoyl(3R-OH)}-[dDab][Dab][Dab][dF]L[Dab][Dab]A; lactam 2-C)	16 (≈ 16 µM)	8 (≈ 7.98 µM)	1 (≈ 0.998 µM)	8 (≈ 7.98 µM)	8 (≈ 7.98 µM)	8 (≈ 7.98 µM)	16 (≈ 16 µM)	32 (≈ 31.9 µM)	>32	>32	16 (≈ 16 µM)	> 300									MIC P. aeruginosa GN_043, PmxR ([3]; polymyxin-resistant): 0.5 µg/mL (≈ 0.499 µM)
CCCCCCC[C@@H](O)CC(=O)N[C@H](CCN)C(=O)N[C@H]1CCNC(=O)[C@H](CC(C)C)NC(=O)[C@H](CCN)NC(=O)[C@H](C)NC(=O)[C@H](CC(C)C)NC(=O)[C@@H](Cc2ccccc2)NC(=O)[C@H](CCN)NC1=O [compound 4945, 3(R)OH-nC9CO-D-Dab-cyc[L-Dab-L-Dab-D-Phe-L-Leu-L-Ala-L-Dab-L-Leu]] ({Decanoyl(3R-OH)}-[dDab][Dab][Dab][dF]LA[Dab]L; lactam 2-C)												181	8 (≈ 7.88 µM)	8 (≈ 7.88 µM)	4 (≈ 3.94 µM)	4 (≈ 3.94 µM)	8 (≈ 7.88 µM)	16 (≈ 15.8 µM)	4 (≈ 3.94 µM)	16 (≈ 15.8 µM)	MIC, A. baumannii Cl Ptyela 10073 4512:2, PmxR (A. baumannii GN_093 PmxR): 32 µg/mL (≈ 31.5 µM); MIC, A. baumannii ATCC 19606 (A. baumannii ATCC 19606): 16 µg/mL (≈ 15.8 µM); MIC, S. Aureus ATCC 25923, MSSA [7]: 32 µg/mL (≈ 31.5 µM); MIC, K. pneumoniae ATCC 13883 (K. pneumoniae ATCC 13883): 16 µg/mL (≈ 15.8 µM)
CCCCCCC[C@@H](O)CC(=O)N[C@H](CCN)C(=O)N[C@H]1CCNC(=O)[C@H](CC(C)C)NC(=O)[C@H](CCN)NC(=O)[C@H](CCN)NC(=O)[C@H](C)NC(=O)[C@@H](Cc2ccccc2)NC(=O)[C@H](CCN)NC1=O [compound 4946, 3(R)OH-nC9CO-D-Dab-cyc[L-Dab-L-Dab-D-Phe-L-Ala-L-Dab-L-Dab-L-Leu]] ({Decanoyl(3R-OH)}-[dDab][Dab][Dab][dF]A[Dab][Dab]L; lactam 2-C)	16 (≈ 16 µM)	8 (≈ 7.98 µM)	1 (≈ 0.998 µM)	8 (≈ 7.98 µM)	16 (≈ 16 µM)	4 (≈ 3.99 µM)	16 (≈ 16 µM)	16 (≈ 16 µM)	16 (≈ 16 µM)	>32	8 (≈ 7.98 µM)	107									MIC P. aeruginosa GN_043, PmxR ([3]; P. aeruginosa GN_043, PmxR): 0.5 µg/mL (≈ 0.499 µM)
CCCCCCC[C@@H](O)CC(=O)N[C@H](CCN)C(=O)N[C@H]1CCNC(=O)[C@H](CC(C)C)NC(=O)[C@H](CCN)NC(=O)[C@H](CCN)NC(=O)[C@H](CC(C)C)NC(=O)[C@H](C)NC(=O)[C@H](CCN)NC1=O [compound 4947, 3(R)OH-nC9CO-D-Dab-cyc[L-Dab-L-Dab-L-Ala-L-Leu-L-Dab-L-Dab-L-Leu]] ({Decanoyl(3R-OH)}-[dDab][Dab][Dab]AL[Dab][Dab]L; lactam 2-C)	>32	>32	32 (≈ 33 µM)	>32	>32	>32	>32	>32	>32	>32	>32	213									MIC P. aeruginosa GN_043, PmxR ([3]; P. aeruginosa GN_043, PmxR): >32 µg/mL
CCCCCCC[C@@H](O)CC(=O)N[C@H](CCN)C(=O)N[C@H]1CCNC(=O)[C@H](CC(C)C)NC(=O)[C@H](CCN)NC(=O)[C@H](CCN)NC(=O)[C@H](CC(C)C)NC(=O)[C@@H](Cc2ccccc2)NC(=O)[C@H](C)NC1=O [compound 4948, 3(R)OH-nC9CO-D-Dab-cyc[L-Dab-L-Ala-D-Phe-L-Leu-L-Dab-L-Dab-L-Leu]] ({Decanoyl(3R-OH)}-[dDab][Dab]A[dF]L[Dab][Dab]L; lactam 2-C)												112	>32	16 (≈ 15.8 µM)	1 (≈ 0.985 µM)	1 (≈ 0.985 µM)	8 (≈ 7.88 µM)	16 (≈ 15.8 µM)	8 (≈ 7.88 µM)	16 (≈ 15.8 µM)	MIC, A. baumannii Cl Ptyela 10073 4512:2, PmxR (A. baumannii GN_093 PmxR): >32 µg/mL; MIC, A. baumannii ATCC 19606 (A. baumannii ATCC 19606): >32 µg/mL; MIC, S. Aureus ATCC 25923, MSSA [7]: >32 µg/mL; MIC, K. pneumoniae ATCC 13883 (K. pneumoniae ATCC 13883): 16 µg/mL (≈ 15.8 µM)
CCCCCC(O)CC(=O)N[C@H](CCN)C(=O)N[C@H]1CCNC(=O)[C@H](CC(C)C)NC(=O)[C@H](CCN)NC(=O)[C@H](CCN)NC(=O)[C@H](CC(C)C)NC(=O)[C@@H](Cc2ccccc2)NC(=O)[C@H](CCN)NC1=O (stereo partly drawn) [compound 5012, 3OH-nC7CO-D-Dab-cyc[L-Dab-L-Dab-D-Phe-L-Leu-L-Dab-L-Dab-L-Leu]] ({Octanoyl(3-OH)}-[dDab][Dab][Dab][dF]L[Dab][Dab]L; lactam 2-C)	4 (≈ 3.94 µM)	16 (≈ 15.7 µM)	4 (≈ 3.94 µM)	32 (≈ 31.5 µM)	32 (≈ 31.5 µM)		>32	>32	>32	>32	8 (≈ 7.87 µM)	130									MIC P. aeruginosa GN_043, PmxR [3]: 4 µg/mL (≈ 3.94 µM)
